According to patent US20170266089A1, “USE OF LIPOPHILIC SALICYLIC ACID DERIVATIVES” (L'OREAL, priority 2014, published 2017):

Assays:
[1] = test system: Transglutaminase 3 (TGM3) transcripts; assay: Expression of TGM3 transcripts in keratinocytes (RT-qPCR); format: cell-based; conditions: human epidermic keratinocytes, 24 hours, compound at 15 μm; for TGM3 transcript expression, fold change (fc) compared to control: normalized to RPL13A and GAPDH, N=3
Description: (§1) The influence of the compounds (A′) and (F), in particular obtained according to the process indicated above, on the renewal of the epidermis and on the barrier effect of the skin was evaluated in vitro by measuring the expression of TGM1 and TGM3 transcripts in keratinocytes.
(§2) Human epidermic keratinocytes were incubated for 24 hours in the presence or not (control) of compound (A′) or (F). At the end of the incubation, total RNAs were extracted and quantified. The expression of TGM1 and TGM3 transcripts was then measured using a two-step RT-qPCR method with a LightCycler® device according to the technique of incorporation of SYBR®Green (Qiagen). The expression of these transcripts was normalized with the expression of two housekeeping genes, RPL13A and GAPDH. The experiments were reproduced 3 times (N=3).
(§3) The results are given in Table (VI) below, fold change (fc) compared to control.

[2] = test system: Transglutaminase 1 (TGM1) transcripts; assay: Expression of TGM1 transcripts in keratinocytes (RT-qPCR); format: cell-based; conditions: human epidermic keratinocytes, 24 hours, compound at 15 μm; for TGM1 transcript expression, fold change (fc) compared to control: normalized to RPL13A and GAPDH, N=3
Description: as §1, §2, §3

[3] = test system: membrane transglutaminase (MTG); assay: Ex vivo immunolabelling of membrane transglutaminase (MTG) in skin explants; set-up: species or system human; conditions: topical 2 mg per explant, compound (F) 5% in water, LHA 5% in ethanol, symbols proportional
Description: (§4) The anti-ageing effect of the compound (F), in particular obtained according to the process indicated above, at 5% in water, was evaluated ex vivo by immunolabelling of the proteins collagen III, membrane transglutaminase (MTG), filaggrin and laminin-5, in comparison with LHA (lipohydroxy acid, 2-hydroxy-5-octanoylbenzoic acid) at 5% in ethanol.
(§5) 111 explants with a diameter of approximately 10 mm were prepared from abdominal plastic surgery on a person. These explants were kept alive.
(§6) On day […], the explants were placed on a grid in 2 ml of culture medium. […]
(§7) At D0, D6 and D11, the explants were sampled from the culture medium and cut in two. […] The labellings were evaluated by a microscopic examination. […]
(§8) The microscopic observations were carried out in optical microscopy and fluorescence microscopy, using a Leica microscope of Orthoplan or DMLB type. […]
Membrane transglutaminase was labelled on frozen sections with a monoclonal antibody, clone B.C1 (Harbor Bio Product ref. 5003), at 1/100th, for 2 h at ambient temperature with a Vectastain RTU Universal, Vector, avidin/biotin amplifying system and visualized in FITC. […] The labelling was evaluated by a microscopic examination. […]
The results obtained with the compound (F) and […] are assessed, at equivalent date, by comparison with the results obtained in the absence of treatment (control test). […]

laminin-5 = assay: Ex vivo immunolabelling of laminin-5 in skin explants; set-up: species or system human; conditions: topical 2 mg per explant, compound (F) 5% in water, LHA 5% in ethanol, symbols proportional
Description: as §4, §5, §6, §7, §8
Immunolabelling of Laminin-5 The labelling of laminin-5 was carried out on frozen sections with a monoclonal antibody, clone P3E4 (Santa Cruz sc-13587), at 1/300th, for 30 minutes at ambient temperature with a biotin/streptavidin amplifying system, visualized in FITC (Caltag sa1001). […] The labelling was evaluated by a microscopic examination. […]
The results obtained with the compound (F) and LHA are assessed, at equivalent date, by comparison with the results obtained in the absence of treatment (control test). […]

SMILES | Stimulation of the expression of TGM3 transcripts (class in words) [1] | TGM3 transcript expression, fold change (fc) compared to control [1] [fc] | Stimulation of the expression of TGM1 transcripts (class in words) [2] | TGM1 transcript expression, fold change (fc) compared to control [2] [fc] | MTG expression level, difference in comparison with the control at D6 [3] | Laminin-5 expression level, difference in comparison with the control at D11 (laminin-5)
CCCCCCCCCCCCCCCc1cccc(O)c1C(=O)O [Compound (A′), 6-peritadecylsalicylic acid] | strong stimulation | 20 | strong stimulation | 6.0 | – | –
CCCCCCCCCCCCCCCc1cccc(O)c1C(=O)O [Compound (F)] | good stimulation | 3.0 | average stimulation | 1.7 | No variation | No variation
CCCCCCCC(=O)c1ccc(O)c(C(=O)O)c1 [LHA, 2-hydroxy-5-octanoylbenzoic acid, reference compound] | – | – | – | – | – | No variation
